These results are taken from patent US7122675B2, “Gamma secretase inhibitors” (Schering Corporation, priority 2001, dated 2006).

The structures appear in SMILES notation.

This assay addresses T1, Gamma secretase (Homo sapiens, UniProt P49768).
T1 construct: endogenous in cells; host or cells: 293 cells (T-REx, clone pTRE.15), salt-washed membrane preparation; only the substrate SPC99-Lon is transfected
Description: Gamma secretase activity assay (membranes of C99-expressing 293 cells, Aβ 40/Aβ 42 ECL immunoassay). Type of assay: biochemical. To be noted: membranes incubated at 37 C for 1 h; Aβ 40 and Aβ 42 measured by ECL immunoassay; read-out: IC50 (concentration of compound producing 50% inhibition of enzyme activity). The protocol: Gamma secretase activity was determined as described by Zhang et a. (Biochemistry, 40 (16), 5049-5055, 2001). Activity is expressed either as a percent inhibition or as the concentration of compound producing 50% inhibition of enzyme activity.
Reagents. Antibodies W02, G2-10, and G2-11 were obtained from Dr. Konrad Beyreuther (University of Heidelberg, Heidelberg, Germany). W02 recognizes residues 5-8 of A peptide, while G2-10 and G2-11 recognize the specific C-terminal structure of A 40 and A 42, respectively. Biotin-4G8 was purchased from Senetec (St. Louis, Mo.). All tissue culture reagents used in this work were from Life Technologies, Inc., unless otherwise specified. Pepstatin A was purchased from Roche Molecular Biochemicals; DFK167 was from Enzyme Systems Products (Livermore, Calif.).
cDNA Constructs, Tissue Culture, and Cell Line Construction. The construct SPC99-Lon, which contains the first 18 residues and the C-terminal 99 amino acids of APP carrying the London mutation, has been described (Zhang, L., Song, L., and Parker, E. (1999) J. Biol. Chem. 274, 8966-8972). Upon insertion into the membrane, the 17 amino acid signal peptide is processed, leaving an additional leucine at the N-terminus of A. SPC99-Ion was cloned into the pcDNA4/TO vector (Invitrogen) and transfected into 293 cells stably transfected with pcDNA6/TR, which is provided in the T-REx system (Invitrogen). The transfected cells were selected in Dulbecco's modified Eagle's media (DMEM) supplemented with 10% fetal bovine serum, 100 units/mL penicillin, 100 µg/mL streptomycin, 250 µg/mL zeocin, and 5 µg/mL blasticidin (Invitrogen). Colonies were screened for A production by inducing C99 expression with […] tetracycline for 16-20 h and analyzing conditioned media with a sandwich immunoassay (see below). One of the clones, designated as pTRE.15, was used in these studies.
Membrane Preparation. C99 expression in cells was induced with […] tetracycline for 20 h. The cells were pretreated with […] 12-myristate 13-acetate (PMA) and […] brefeldin A (BFA) for 5-6 h at 37 C before harvesting. The cells were washed 3 times with cold phosphate-buffered saline (PBS) and harvested in buffer A containing 20 mM Hepes (pH 7.5), 250 mM sucrose, 50 mM KCl, 2 mM EDTA, 2 mM EGTA, and Complete protease inhibitor tablets (Roche Molecular Biochemicals). The cell pellets were flash-frozen in liquid nitrogen and stored at −70 C. before use.
To make membranes, the cells were resuspended in buffer A and lysed in a nitrogen bomb at 600 psi. The cell lysate was centrifuged at 1500 g for 10 min to remove nuclei and large cell debris. The supernatant was centrifuged at 100000 g for 1 h. The membrane pellet was resuspended in buffer A plus 0.5 M NaCl, and the membranes were collected by centrifugation at 200000 g for 1 h. The salt-washed membrane pellet was washed again in buffer A and centrifuged at 100000 g for 1 h. The final membrane pellet was resuspended in a small volume of buffer A using a Teflon-glass homogenizer. The protein concentration was determined, and membrane aliquots were flash-frozen in liquid nitrogen and stored at −70 C.
-Secretase Reaction and A Analysis. To measure -secretase activity, membranes were incubated at 37 C for 1 h in 50 L of buffer containing 20 mM Hepes (pH 7.0) and 2 mM EDTA. At the end of the incubation, Aβ 40 and Aβ 42 were measured using an electrochemiluminescence (ECL)-based immunoassay. Aβ 40 was identified with antibody pairs TAG-G2-10 and biotin-W02, while A 42 was identified with TAG-G2-11 and biotin-4G8. The ECL signal was measured using an ECL-M8 instrument (IGEN International, Inc.) according to the manufacturer's instructions. The data presented were the means of the duplicate or triplicate measurements in each experiment. The characteristics of -secretase activity described were confirmed using more than five independent membrane preparations.

Consider `COC(=O)c1ccc(CN(C2CCCN(C(=O)OC(C)(C)C)C2)S(=O)(=O)c2ccc(C(F)(F)F)cc2)cc1` (centres unmarked) [Example 14], for which the IC50 is 28 to 345 nM.
For `COC(=O)c1ccc(CN(C2CCCN(C(=O)OC(C)(C)C)C2)S(=O)(=O)c2ccc(OC(F)(F)F)cc2)cc1` (centres unmarked) [Example 16], the IC50 lay in the range of 28 to 345 nM.
As for `COC(=O)c1ccc(CN(C2CCCN(C(=O)OC(C)(C)C)C2)S(=O)(=O)c2ccc([N+](=O)[O-])cc2)cc1` (centres unmarked) [Example 17], the IC50 lay within 28 to 345 nM.
With `COC(=O)c1ccc(CN(C2CCCN(C(=O)OC(C)(C)C)C2)S(=O)(=O)c2ccc(C#N)cc2)cc1` (centres unmarked) [Example 18], the IC50 lay in the range of 28 to 345 nM.
On to `COC(=O)c1ccc(CN(C2CCCN(C(=O)OC(C)(C)C)C2)S(=O)(=O)c2ccc(-c3ccccc3)cc2)cc1` (centres unmarked) [Example 20], for which the IC50 was in the range of 28 to 345 nM.
`COC(=O)c1ccc(CN(C2CCCN(C(=O)Cc3cccnc3)C2)S(=O)(=O)c2ccc(Cl)cc2)cc1` (centres unmarked) [Example 56]: the IC50 lay in the range of 28 to 345 nM.
As to `COC(=O)c1ccc(CN(C2CCCN(C(=O)Cc3ccccc3)C2)S(=O)(=O)c2ccc(Cl)cc2)cc1` (centres unmarked) [Example 62], the IC50 was 28 to 345 nM.
With `COC(=O)c1ccc(CN(C2CCCN(C(=O)C(C)C)C2)S(=O)(=O)c2ccc(OC)cc2)cc1` (centres unmarked) [Example 68], the IC50 was 28 to 345 nM.
For the compound `COC(=O)c1ccc(CN(C2CCCN(C(=O)Cc3cc(F)cc(F)c3)C2)S(=O)(=O)c2ccc(C(F)(F)F)cc2)cc1` (centres unmarked) [Example 79], the IC50 is 28 to 345 nM.
As to `CC1COCC(C)N1C(=O)N1CCCC(N(c2cc(F)ccc2F)S(=O)(=O)c2ccc(Cl)cc2)C1` (centres unmarked) [Example 161], the IC50 lay within 28 to 345 nM.
Take `CC1CCCCN1C(=O)N1CCCC(N(c2cc(F)ccc2F)S(=O)(=O)c2ccc(Cl)cc2)C1` (centres unmarked) [Example 162]: the IC50 lay in the range of 28 to 345 nM.
`CN1CCN(C(=O)N2CCCC(N(c3cc(F)ccc3F)S(=O)(=O)c3ccc(Cl)cc3)C2)CC1` (centres unmarked) [Example 180]: the IC50 was in the range of 28 to 345 nM.
As to `O=C(N1CCN(CCOCCO)CC1)N1CCCC(N(c2cc(F)ccc2F)S(=O)(=O)c2ccc(Cl)cc2)C1` (centres unmarked) [Example 181], the IC50 fell in the range of 28 to 345 nM.
`O=C(N1CCN(CCO)CC1)N1CCCC(N(c2cc(F)ccc2F)S(=O)(=O)c2ccc(Cl)cc2)C1` (centres unmarked) [Example 182]: the IC50 was in the range of 28 to 345 nM.
As to `O=C(N1CCCC(N(c2cc(F)ccc2F)S(=O)(=O)c2ccc(Cl)cc2)C1)N1CCCCC1CO` (centres unmarked) [Example 192], the IC50 lay in the range of 28 to 345 nM.
Consider `CN(C)CC1CCCCN1C(=O)N1CCC[C@H](N(c2cc(F)ccc2F)S(=O)(=O)c2ccc(Cl)cc2)C1` (some centres unmarked) [Example 213], for which the IC50 lay in the range of 28 to 345 nM.
As for `C[C@@H]1CN(C(=O)OC(C)(C)C)CCN1C(=O)N1CCC[C@H](N(c2cc(F)ccc2F)S(=O)(=O)c2ccc(Cl)cc2)C1` [Example 214], the IC50 lay within 28 to 345 nM.
